The record followed here is publication PMC7180638, “Synthesis of Pyrrolidine Monocyclic Analogues of Pochonicine and Its Stereoisomers: Pursuit of Simplified Structures and Potent β-N-Acetylhexosaminidase Inhibition” (Molecules, 2020).

For orientation: IC50 means the concentration that inhibits the measured activity by half.

Structures can show the parent of a compound that is named as a salt. Where two headings read alike, the source gives them in different places.

Type in all cases: biochemical
Assay [1] concerns the target T1, α-Galactosidase (Coffee beans) (Coffea arabica, UniProt Q42656).
T1 construct: purchased Sigma-Aldrich Chemical Co
Nature of the assay: α-Galactosidase (coffee beans) inhibition. The procedure: (§1) With rat intestinal maltase as an exception, other enzymes were purchased from Sigma-Aldrich Chemical Co. (St. Louis, MO, USA). Brush border membranes prepared from rat small intestine according to the method of Kessler et al. were assayed at pH 6.8 for rat intestinal maltase using maltose. The released D-glucose was determined colorimetrically using the Glucose CII-test Wako (Wako Pure Chemical Ind.; Osaka, Japan). Other glycosidase activities were determined using an appropriate p-nitrophenyl glycoside as substrate in a buffer solution at the optimal pH value of each enzyme. The reaction was stopped by adding 400 mM Na2CO3. The released p-nitrophenol was measured spectrometrically at 400 nm.

The target in a further assay is β-Mannosidase (Snail). Nature of the assay: β-Mannosidase (snail) inhibition. The procedure: as §1
In assay [2] the target is β-N-Acetylhexosaminidase (Bovine liver). The assay can be described thus: β-N-Acetylhexosaminidase (bovine liver) inhibition. As to conditions: for IC50: β-N-Acetylhexosaminidase (β-GlcNAcase); for Inhibition % at 1000 μM: β-N-Acetylhexosaminidase. The procedure: as §1
In assay [3] the target is T2, α-N-Acetylgalactosaminidase (Chicken liver) (Gallus gallus, UniProt Q90744).
T2 construct: purchased Sigma-Aldrich Chemical Co; host or cells: chicken liver
T2 sequence (Q90744 1-405): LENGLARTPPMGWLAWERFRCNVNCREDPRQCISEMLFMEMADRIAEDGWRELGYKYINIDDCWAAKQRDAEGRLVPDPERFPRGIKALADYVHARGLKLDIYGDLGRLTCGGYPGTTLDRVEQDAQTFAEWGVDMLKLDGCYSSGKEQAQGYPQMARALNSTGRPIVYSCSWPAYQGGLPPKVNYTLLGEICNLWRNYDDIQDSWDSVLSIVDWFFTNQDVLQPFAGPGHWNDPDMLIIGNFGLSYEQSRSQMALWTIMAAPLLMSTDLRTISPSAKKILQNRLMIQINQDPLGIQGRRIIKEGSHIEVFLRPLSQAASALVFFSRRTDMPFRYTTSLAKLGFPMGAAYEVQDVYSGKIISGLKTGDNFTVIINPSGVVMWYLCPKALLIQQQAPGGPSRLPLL
The assay can be described thus: α-N-Acetylgalactosaminidase (chicken liver) inhibition. The procedure: as §1

In assay [4] the target is β-N-Acetylhexosaminidase (Jack bean). The assay can be described thus: β-N-Acetylhexosaminidase (Jack bean) inhibition. To be noted: for IC50: β-N-Acetylhexosaminidase (β-GlcNAcase). The procedure: as §1
Assay [5] concerns the target β-Glucosidase (Bovine liver). Nature of the assay: β-Glucosidase (bovine liver) inhibition. The procedure: as §1
The target in the next assay is Rat intestinal maltase. The assay can be described thus: Rat intestinal maltase inhibition. As to conditions: α-Glucosidase. The procedure:
as §1

Assay [6] has as its target T3, β-Glucuronidase (Bovine liver) (Bos taurus, UniProt A3KMY8).
T3 construct: purchased Sigma-Aldrich Chemical Co; host or cells: bovine liver
T3 sequence (A3KMY8 1-652): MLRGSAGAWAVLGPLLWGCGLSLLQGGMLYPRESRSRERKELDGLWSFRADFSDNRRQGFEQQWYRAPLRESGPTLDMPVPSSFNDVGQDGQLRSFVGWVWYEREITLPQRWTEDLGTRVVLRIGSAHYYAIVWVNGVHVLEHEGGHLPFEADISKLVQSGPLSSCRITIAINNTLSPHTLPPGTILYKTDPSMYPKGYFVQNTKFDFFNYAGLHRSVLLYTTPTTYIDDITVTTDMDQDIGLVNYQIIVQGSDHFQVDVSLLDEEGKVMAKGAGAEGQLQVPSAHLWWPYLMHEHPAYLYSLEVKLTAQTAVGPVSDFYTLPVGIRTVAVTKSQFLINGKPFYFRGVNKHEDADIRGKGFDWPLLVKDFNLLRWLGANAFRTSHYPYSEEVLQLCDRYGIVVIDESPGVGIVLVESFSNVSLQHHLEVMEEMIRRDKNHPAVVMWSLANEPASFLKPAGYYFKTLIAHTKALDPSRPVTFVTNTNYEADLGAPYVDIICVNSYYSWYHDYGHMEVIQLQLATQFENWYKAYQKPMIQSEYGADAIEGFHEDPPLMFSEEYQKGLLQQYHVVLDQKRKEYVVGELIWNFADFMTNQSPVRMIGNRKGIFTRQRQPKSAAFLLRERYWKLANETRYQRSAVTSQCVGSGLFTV
The assay can be described thus: β-Glucuronidase (bovine liver) inhibition. The procedure:
as §1

The target of assay [7] is T4, α-L-Fucosidase (Bovine kidney) (Bos taurus, UniProt Q2KIM0).
T4 construct: purchased Sigma-Aldrich Chemical Co; host or cells: bovine kidney
T4 sequence (Q2KIM0 23-468): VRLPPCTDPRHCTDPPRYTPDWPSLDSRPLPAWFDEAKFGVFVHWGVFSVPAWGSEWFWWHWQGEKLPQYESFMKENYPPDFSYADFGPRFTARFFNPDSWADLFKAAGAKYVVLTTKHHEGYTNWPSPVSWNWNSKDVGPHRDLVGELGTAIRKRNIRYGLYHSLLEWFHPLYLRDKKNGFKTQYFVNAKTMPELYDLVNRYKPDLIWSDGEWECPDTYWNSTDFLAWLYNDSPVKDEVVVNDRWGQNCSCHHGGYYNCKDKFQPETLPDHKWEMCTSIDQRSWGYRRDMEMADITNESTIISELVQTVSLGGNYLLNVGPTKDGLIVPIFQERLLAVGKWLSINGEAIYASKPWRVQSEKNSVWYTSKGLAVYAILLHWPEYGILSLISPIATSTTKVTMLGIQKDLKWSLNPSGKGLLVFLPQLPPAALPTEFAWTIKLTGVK
Nature of the assay: α-L-Fucosidase (bovine kidney) inhibition. The procedure: as §1

A further assay deals with α-Glucosidase (Yeast) (Saccharomyces cerevisiae, UniProt P53341). Nature of the assay: α-Glucosidase (yeast) inhibition. The procedure: as §1
Chain of α-Glucosidase (Yeast) (P53341 whole entry): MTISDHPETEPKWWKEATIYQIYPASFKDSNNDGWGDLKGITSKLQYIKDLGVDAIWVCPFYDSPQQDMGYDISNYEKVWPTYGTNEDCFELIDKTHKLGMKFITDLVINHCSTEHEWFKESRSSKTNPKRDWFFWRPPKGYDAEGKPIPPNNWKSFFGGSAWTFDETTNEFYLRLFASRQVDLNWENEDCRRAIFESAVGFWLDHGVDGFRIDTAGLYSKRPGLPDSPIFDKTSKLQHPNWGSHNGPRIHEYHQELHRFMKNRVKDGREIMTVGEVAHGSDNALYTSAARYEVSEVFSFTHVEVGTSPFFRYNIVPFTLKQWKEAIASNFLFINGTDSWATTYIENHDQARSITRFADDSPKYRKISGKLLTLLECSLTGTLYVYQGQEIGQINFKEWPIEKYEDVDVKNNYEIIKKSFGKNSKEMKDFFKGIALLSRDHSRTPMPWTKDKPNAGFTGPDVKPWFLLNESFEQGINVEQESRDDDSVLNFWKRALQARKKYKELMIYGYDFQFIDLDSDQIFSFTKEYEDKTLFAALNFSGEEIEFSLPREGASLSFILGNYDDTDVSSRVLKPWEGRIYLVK
The target of assay [8] is β-N-Acetylgalactosaminidase (HL60). Nature of the assay: β-N-Acetylgalactosaminidase (HL60) inhibition. The procedure: as §1
For the next assay, the target named is T5, α-Glucosidase (Rice) (Oryza sativa subsp. japonica, UniProt Q653V7).
T5 construct: purchased Sigma-Aldrich Chemical Co
T5 sequence (Q653V7 34-885): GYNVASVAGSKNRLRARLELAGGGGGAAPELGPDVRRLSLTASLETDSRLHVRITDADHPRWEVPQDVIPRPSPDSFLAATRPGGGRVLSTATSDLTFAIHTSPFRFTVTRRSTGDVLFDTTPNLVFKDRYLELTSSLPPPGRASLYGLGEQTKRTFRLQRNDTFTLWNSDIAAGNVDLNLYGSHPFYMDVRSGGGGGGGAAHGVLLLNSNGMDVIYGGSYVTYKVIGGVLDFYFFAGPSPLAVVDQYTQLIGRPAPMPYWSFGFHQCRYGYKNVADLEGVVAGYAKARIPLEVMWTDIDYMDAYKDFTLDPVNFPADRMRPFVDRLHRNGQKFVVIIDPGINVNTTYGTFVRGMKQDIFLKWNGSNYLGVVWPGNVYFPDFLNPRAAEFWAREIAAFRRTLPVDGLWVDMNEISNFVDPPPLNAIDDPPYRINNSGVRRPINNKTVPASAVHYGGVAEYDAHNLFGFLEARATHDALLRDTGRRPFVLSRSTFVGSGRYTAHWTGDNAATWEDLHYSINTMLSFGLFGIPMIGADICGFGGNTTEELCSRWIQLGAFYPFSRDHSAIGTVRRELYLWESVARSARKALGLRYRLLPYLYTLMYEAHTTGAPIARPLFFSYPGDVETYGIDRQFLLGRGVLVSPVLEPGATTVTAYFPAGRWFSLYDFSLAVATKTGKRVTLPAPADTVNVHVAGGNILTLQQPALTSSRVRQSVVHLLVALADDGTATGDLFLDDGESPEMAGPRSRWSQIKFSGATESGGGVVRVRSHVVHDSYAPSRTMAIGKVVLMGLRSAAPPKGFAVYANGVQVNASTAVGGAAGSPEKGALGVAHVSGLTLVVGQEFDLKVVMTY
Nature of the assay: α-Glucosidase (rice) inhibition. The procedure: as §1

Where [9] appears, read: 1000 μM, read-out: Inhibition % at 1000 μM.
The mark [10] stands for this setting: read-out: Inhibition % at 1000 μM.
The mark [11] stands for this setting: α-Glucosidase, Yeast, read-out: IC50.

T1 sequence (Q42656 16-378): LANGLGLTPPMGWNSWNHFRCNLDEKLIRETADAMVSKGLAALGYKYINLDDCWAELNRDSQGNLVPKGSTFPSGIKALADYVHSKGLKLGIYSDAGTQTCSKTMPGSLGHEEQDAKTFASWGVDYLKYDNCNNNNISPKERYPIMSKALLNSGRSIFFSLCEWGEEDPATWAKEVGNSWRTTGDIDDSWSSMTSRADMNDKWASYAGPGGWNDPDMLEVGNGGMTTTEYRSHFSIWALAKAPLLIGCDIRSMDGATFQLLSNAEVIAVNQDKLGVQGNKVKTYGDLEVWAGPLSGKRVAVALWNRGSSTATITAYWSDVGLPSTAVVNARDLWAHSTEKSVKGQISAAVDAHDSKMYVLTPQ

Consider `CC(=O)NC[C@@H]1N[C@H](CO)[C@H](O)[C@H]1O` [F-10a, 1-N-acetylamino-2,5-imino-1,2,5-trideoxy-L-glucitol hydrochloride], for which the inhibition at 1000 µM in assay [1] (setting [9]) was 0.36%; in assay [1] (read-out: IC50), under 50%; in [3] (setting [9]) it was 0%; in assay [3] (read-out: IC50), under 50%; in assay [6] (setting [9]) it was 0%; in assay [6] (read-out: IC50), under 50%. Moreover, the inhibition at 1000 µM in assay [7] (setting [9]) is 8.4%; in assay [7] (read-out: IC50), under 50%; on α-Glucosidase (Yeast) (read-out: IC50), under 50%; on α-Glucosidase (Yeast) (setting [10]), 6.91%; on α-Glucosidase (Rice) (setting [9]), 12.5%; on α-Glucosidase (Rice) (read-out: IC50) it was under 50%. The IC50 result (on β-Mannosidase (Snail); in assay [2]; in [4]; in [5]; against Rat intestinal maltase; in assay [8]) was “NI (No Inhibition (less than 50% at 1000 μM))” each time. Moreover, the “Inhibition % at 1000 μM” value in the assay with β-Mannosidase (Snail) is recorded as 3.23%; in assay [2], 23.2%; in assay [4] (β-N-Acetylhexosaminidase, 1000 μM), 42%; in assay [5], 0.3%; in the assay on Rat intestinal maltase, 14.6%; in assay [8], 0.9%.
For `CC(=O)NC[C@@H]1N[C@@H](CO)[C@@H](O)[C@H]1O` [C-10, 1-N-acetylamino-2,5-imino-1,2,5-trideoxy-L-altritol hydrochloride], the inhibition at 1000 µM in [1] (setting [9]) is 0.36%; in [1] (read-out: IC50), under 50%; in assay [3] (setting [9]), 6.1%; in assay [3] (read-out: IC50), under 50%; in assay [6] (setting [9]), 0%; in assay [6] (read-out: IC50), under 50%. The inhibition at 1000 µM was 4.9% in assay [7] (setting [9]); under 50% in assay [7] (read-out: IC50); 0% on α-Glucosidase (Yeast) (setting [10]); under 50% at α-Glucosidase (Yeast) (setting [11]); 18.2% at α-Glucosidase (Rice) (setting [9]); under 50% at α-Glucosidase (Rice) (read-out: IC50). In addition, the half-inhibitory concentration (IC50) result was “NI (No Inhibition (less than 50% at 1000 μM))” at β-Mannosidase (Snail); “NI (No Inhibition (less than 50% at 1000 μM))” in [2]; 129 µM in assay [4] (read-out: IC50); “NI (No Inhibition (less than 50% at 1000 μM))” in [5]; “NI (No Inhibition (less than 50% at 1000 μM))” at Rat intestinal maltase; “NI (No Inhibition (less than 50% at 1000 μM))” in assay [8]. In addition, the “Inhibition % at 1000 μM” value in the assay with β-Mannosidase (Snail) is 0%; in assay [2], 36.3%; in assay [5], 1.0%; in the assay on Rat intestinal maltase it was 35.4%; in [8], 1.4%.
With `CC(=O)NC[C@@H]1N[C@H](CO)[C@@H](O)[C@H]1O` [H-10, 1-N-acetylamino-2,5-imino-1,2,5-trideoxy-L-allitol hydrochloride], the inhibition at 1000 µM in [1] (setting [9]) was 0%; in assay [1] (read-out: IC50), under 50%; in [3] (setting [9]) it was 6.1%; in assay [3] (read-out: IC50), under 50%; in assay [6] (setting [9]), 0%; in assay [6] (read-out: IC50), under 50%. The inhibition at 1000 µM in assay [7] (setting [9]) is 22.3%; in assay [7] (read-out: IC50), under 50%; on α-Glucosidase (Yeast) (setting [10]), 0%; at α-Glucosidase (Yeast) (setting [11]), under 50%; on α-Glucosidase (Rice) (setting [9]) it was 5.6%; on α-Glucosidase (Rice) (read-out: IC50) it was under 50%. For the same compound, the half-inhibitory concentration (IC50) entry was “NI (No Inhibition (less than 50% at 1000 μM))” against β-Mannosidase (Snail); “NI (No Inhibition (less than 50% at 1000 μM))” in [2]; 241 µM in assay [4] (read-out: IC50); “NI (No Inhibition (less than 50% at 1000 μM))” in assay [5]; “NI (No Inhibition (less than 50% at 1000 μM))” on Rat intestinal maltase; “NI (No Inhibition (less than 50% at 1000 μM))” in [8]. Besides, the “Inhibition % at 1000 μM” value with β-Mannosidase (Snail) turned out to be 0%; in assay [2] it was 33.7%; in assay [5], 1.7%; in the assay on Rat intestinal maltase, 13.6%; in [8] it was 5.3%.
For `CC(=O)NC[C@H]1N[C@@H](CO)[C@@H](O)[C@@H]1O` [E-10a, 1-N-acetylamino-2,5-imino-1,2,5-trideoxy-D-glucitol hydrochloride], the inhibition at 1000 µM in assay [1] (setting [9]) was 0.36%; in [1] (read-out: IC50), under 50%; in [3] (setting [9]), 1.4%; in assay [3] (read-out: IC50), under 50%; in assay [6] (setting [9]), 0%; in [6] (read-out: IC50), under 50%. The inhibition at 1000 µM in assay [7] (setting [9]) is 41.7%; in assay [7] (read-out: IC50), under 50%; on α-Glucosidase (Yeast) (setting [10]), 0%; at α-Glucosidase (Yeast) (setting [11]) it was under 50%; on α-Glucosidase (Rice) (setting [9]), 15.9%; at α-Glucosidase (Rice) (read-out: IC50), under 50%. In addition, the IC50 result is “NI (No Inhibition (less than 50% at 1000 μM))” against β-Mannosidase (Snail); 95 µM in [2] (read-out: IC50); 10 µM in assay [4] (read-out: IC50); “NI (No Inhibition (less than 50% at 1000 μM))” in assay [5]; “NI (No Inhibition (less than 50% at 1000 μM))” against Rat intestinal maltase; 490 µM in assay [8] (read-out: IC50). Also, the “Inhibition % at 1000 μM” value was found to be 25.8% with β-Mannosidase (Snail), 4.1% in assay [5] and 12.7% with Rat intestinal maltase.
